Results published in patent US4461724A, “Peptide compounds, a process for manufacturing them, pharmaceutical compositions containing them, and methods for treating ulcer and thrombus with them” (Nippon Zoki Pharmaceutical Co., Ltd., priority 1981, dated 1984).
Square brackets hold non-standard residues; d marks the D form. Peptide text beside a SMILES is read from it. pGlu = O=C1CC[C@@H](C(=O)O)N1

Columns and labels:
[1] = test system: Collagen Induced Hemagglutination; test: Antithrombotic effect (I): collagen induced hemagglutination in plasma of dosed rats; assay type: in vivo, Wister strain male rats; details: collagen as coagulant; for Transmittance: mean ± S.E., control 52.5 ± 7.1
Method: (§1) Groups each consisting of 10 Wister strain male rats (120-160 g) were administered with the drug to be tested through the tail vein, and 5 minutes later, blood was taken under etherized conditions at a ratio to 3.8% aqueous sodium citrate solution of 1/10. This was centrifugally separated into platelet rich plasma (PRP) and platelet poor plasma (PPP). Using ADP or collagen as the coagulant, the reaction was effected at 37° C. The transmittance of the plasma with the coagulant and drug to be tested was measured using PRP and PPP as the standards, compared with the control, and the percent inhibition was calculated. As the comparative drug, ticlopidine was orally administered.

[2] = test system: ADP Induced Hemagglutination; test: Antithrombotic effect (I): ADP induced hemagglutination in plasma of dosed rats; assay type: in vivo, Wister strain male rats; details: ADP as coagulant; for Transmittance: mean ± S.E., control 62.9 ± 6.3
Method: as §1

[3] = test system: acetic acid-induced ulcer in rats; test: Acetic acid-induced (chronic) ulcer inhibiting effect; assay type: in vivo; details: once a day for 10 days
Method: The effect of the peptide compound of this invention on chronic ulcer was examined according to the method by Takagi et al. [Takagi, K. et al., Japan J. Pharmacol., 19, 418 (1970)]. That is, 0.025 ml of 30% acetic acid was injected to the stomach serous membrane in rats, and for 10 days thereafter, the peptide compound of this invention (Compound 25) was intravenously administered once a day. Gefarnate and secretin both employed as the comparative drugs were similarly intramuscularly administered (i.m.).

[4] = test system: histamine-induced ulcer in rats; test: Histamine-induced ulcer inhibiting effect (Table 1); assay type: in vivo, Wister strain male rats; details: histamine dihydrochloride 300 mg/kg i.p., 4 hours; for Ulcer coefficient (total surface area of ulcer lesion): mean ± S.E., control 28.4 ± 3.2
Method: Groups each consisting of 10 Wister strain male rats (120-130 g) were starved for 24 hours, and the drug to be tested were intravenously administered (i.v.). Immediately thereafter, according to the method by Bucher et al. [Bucher, F. et al., Beitr. Path. Anat. 81, 391 (1928)], 300 mg/kg of histamine dihydrochloride was administered intraperitoneally (i.p.). Four hours later, each animal was decapitated to bleed, and the stomach was removed. 6 ml of physiological saline was infused into the removed stomach, which was then dipped in 10% formalin for 10 minutes. Then, the stomach was incised along the greater curvature. The ulcer appeared on the stomach mucous membrane was observed on a stereoscopic microscope to measure the surface area of the ulcer lesion, and the total area was designated as the ulcer coefficient.

[5] = test system: cortisone-induced ulcer in rats; test: (D) Cortisone-induced ulcer inhibiting effect; assay type: in vivo; details: starved rats, cortisone acetate 20 mg/kg s.c. and drug once a day for 4 days
Method: (§2) The peptide compound of this invention (Compound 25) and cimetidine and atropine both employed as the comparative drugs were intravenously administered.
According to the method by Robert et al. [Robert, A & Nezamis, J. E., Proc. Soc. Exptl. Biol. Med., 99, 443 (1958)], rats were starved, and 20 mg/kg of cortisone acetate was subcutaneously administered once a day for 4 days to induce ulcer. The drug to be tested was also administered simultaneously with the cortisone acetate once a day for 4 days.

[6] = test system: cysteamine-induced duodenal ulcer in rats; test: (E) Cysteamine-induced duodenal ulcer inhibiting effect; assay type: in vivo; details: drug once before cysteamine hydrochloride 400 mg/kg
Method: as §2
According to the method by Robert at al. [Robert, H. et al., Digestion, 11, 199 (1974)], 400 mg/kg of cysteamine hydrochloride was administered to rats to induce duodenal ulcer. The drug to be tested was administered once before the administration of the cysteamine.

[7] = test system: restraint and water immersion stress ulcer in rats; test: (A) Restraint and water immersion stress ulcer inhibiting effect; assay type: in vivo; details: stress 25° C., 4 hours, drug once before stress
Method: as §2
According to the method by Takagi et al. [Takagi, K. et al., Chem. Pharm. Bull., 12, 465 (1964)], the effect on the ulcer in rats induced by stress due to restraint and immersing in water in wire cages (25° C., 4 hours) was examined. The drugs to be tested were administered once before loading the stress.

[8] = test system: histamine-induced ulcer in rats; test: (C) Histamine-induced ulcer inhibiting effect (ID50); assay type: in vivo; details: drug once before histamine 300 mg/kg
Method: 4. […] According to the method by Bucher et al. [ Bucher, F. et al., Beitr. Path. Anat., 81, 391 (1928)], the drug to be tested was intraperitoneally administered to rats once before the oral administration of 300 mg/kg of histamine.

[9] = test system: aspirin-induced ulcer in rats; test: (B) Aspirin-induced ulcer inhibiting effect; assay type: in vivo; details: drug once before oral aspirin 200 mg/kg
Method: 4. […] According to the method by Brodie et al. [Brodie, D. A. & Chase, B. J., Gastroenterology, 53, 604 (1967)], the drug to be tested was orally administered to rats once before the oral administration of 200 mg/kg of aspirin.

[10] = test system: thrombus on silk thread in extracorporeal shunt of rats; test: Antithrombotic effect (II): extracorporeal shunt with silk thread, thrombus wet weight; assay type: in vivo, Wister strain male rats; details: 20 minute circulation; for Thrombosis wet weight: mean ± S.E., control 38.1 ± 3.4
Method: The present pharmacological test was conducted according to the method by T. Umetsu et al. [Thrombosis and Haemostasis, 39, 74-83 (1978)]. Groups each consisting of 10 Wister strain male rats were anesthetized by intraperitoneal administration of 50 mg/kg of sodium pentobarbital. An extracorporeal shunt prepared by connecting cannula polyethylene tubes to both ends of a polyethylene tube into which a silk thread had been inserted was filled with heparin, the both ends were then inserted into the dissected and exposed left jugular vein and right carotid artery. Thereafter, blood circulation was started. The drug to be tested was intravenously administered one minute before the start of blood circulation. Aspirin was orally administered as a comparative drug. After 20 minute blood circulation, the wet weight of the thrombus coated to the silk thread was weighed, and the inhibition rate was calculated.

[11] = test system: pylorus ligation ulcer in rats; test: Pylorus ligation ulcer inhibiting effect; assay type: in vivo, Wister strain male rats; details: 1 mg/kg i.p., 18 hours after pylorus ligation, mean ± S.E., control 4.5 ± 0.3
Method: Groups each consisting of 10 Wister strain male rats were starved for 24 hours, and the pylorus was ligatured under etherized conditions. The peptide compound of this invention (Compound 25) was intraperitoneally administered. Eighteen hours later, the stomach was removed and cut open. The ulcer appeared on the rumen was evaluated using 6-ranked ulcer index according to the method by Narumi et al. [A. Narumi, et al., J. Takeda Res. Lab., 29, 85 (1970)].

[12] = 10 mg/kg via tail vein, blood taken 5 minutes later
[13] = 1 mg/kg i.v. one minute before circulation
[14] = 10 mg/kg i.v. one minute before circulation

## Clc1ccccc1CN1CCc2sccc2C1 [Thichlopidine, ticlopidine]
[1]; Rattus norvegicus, po, 100 mg/kg orally, read-out: Inhibition rate (%)
  inhibition at 100 mg/kg: 34.1%
[1]; 100 mg/kg orally
  Transmittance: 34.6 ± 10.8
[2]; 100 mg/kg orally
  Transmittance: 41.6 ± 10.4
[2]; Rattus norvegicus, po, 100 mg/kg orally, read-out: Inhibition Rate (%)
  inhibition at 100 mg/kg: 33.9%

## CC(C)=CCC/C(C)=C/CC/C(C)=C/CCC(=O)OC/C=C(\C)CCC=C(C)C [Gefarnate]
[3]; intramuscular
  ID50 acetic acid-induced ulcer: 250 mg/kg, i.m.

## NCCCC[C@H](NC(=O)[C@H](Cc1c[nH]cn1)NC(=O)[C@H](CO)NC(=O)[C@@H]1CCC(=O)N1)C(=O)O [Compound 28, (pyr)Glu-Ser-His-Lys] ([pGlu]SHK-OH)
[4]; 20 mg/kg i.v.
  Inhibition rate (%): 57.0%
  Ulcer coefficient (total surface area of ulcer lesion): 12.2 ± 2.6
[2]; [12]
  Inhibition rate (%): 57.9%
  Transmittance: 26.5 ± 7.2

## CN/C(=N/CCSCc1nc[nH]c1C)NC#N [Cimetidine, cimetidine]
[4]; 25 mg/kg i.v.
  Ulcer coefficient (total surface area of ulcer lesion): 10.9 ± 1.9
[4]; Rattus norvegicus, 25 mg/kg i.v., read-out: Inhibition rate (%)
  inhibition at 25 mg/kg: 61.6%
[5]
  ID50 (D) cortisone-induced ulcer: 28.0 mg/kg, i.v.
[6]
  ID50 (E) cysteamine-induced duodenal ulcer: 26.0 mg/kg, i.v.
[7]
  ID50 (A) restraint and water immersion stress ulcer: 37.0 mg/kg, i.v.
[8]
  ID50 (C) histamine-induced ulcer: 17.0 mg/kg, i.v.
[9]
  ID50 (B) aspirin-induced ulcer: 39.0 mg/kg, i.v.

## CN1[C@@H]2CC[C@H]1C[C@@H](OC(=O)C(CO)c1ccccc1)C2 (stereo partly drawn) [Atropine, atropine]
[5]
  ID50 (D) cortisone-induced ulcer: 0.25 mg/kg, i.v.
[6]
  ID50 (E) cysteamine-induced duodenal ulcer: 0.35 mg/kg, i.v.
[7]
  ID50 (A) restraint and water immersion stress ulcer: 0.4 mg/kg, i.v.
[8]
  ID50 (C) histamine-induced ulcer: 0.35 mg/kg, i.v.
[9]
  ID50 (B) aspirin-induced ulcer: 0.52 mg/kg, i.v.

## CC(=O)Oc1ccccc1C(=O)O [Aspirin]
[10]; 100 mg/kg orally
  Thrombosis wet weight: 22.3 ± 3.2 mg
[10]; Rattus norvegicus, po, 20 min, 100 mg/kg orally, read-out: Inhibition rate (%)
  inhibition at 100 mg/kg: 41.5%

## secretin
[3]; intramuscular
  ID50 acetic acid-induced ulcer: > 100 U/kg, i.m.

## NCCCC[C@H](NC(=O)[C@H](Cc1c[nH]cn1)NC(=O)[C@H](CO)NC(=O)CN)C(=O)O [Compound 25, Gly-Ser-His-Lys.CH3 COOH.H2 O] (H-GSHK-OH)
[4]; 20 mg/kg i.v.
  Inhibition rate (%): 79.9%
  Ulcer coefficient (total surface area of ulcer lesion): 5.7 ± 2.6
[5]
  ID50 (D) cortisone-induced ulcer: 1.85 mg/kg, i.v.
[6]
  ID50 (E) cysteamine-induced duodenal ulcer: 5.0 mg/kg, i.v.
[7]
  ID50 (A) restraint and water immersion stress ulcer: 4.2 mg/kg, i.v.
[1]; 10.0 mg/kg via tail vein, 10 mg/kg
  Transmittance: 14.8 ± 4.9
[1]; 10 mg/kg
  Inhibition rate (%): 71.8%
[10]; [13]
  Inhibition rate (%): 27.3%
  Thrombosis wet weight: 27.7 ± 4.0 mg
[10]; [14]
  Inhibition rate (%): 44.1%
  Thrombosis wet weight: 21.3 ± 3.3 mg
[8]
  ID50 (C) histamine-induced ulcer: 6.0 mg/kg, i.v.
[3]; intravenous
  ID50 acetic acid-induced ulcer: 1.0 mg/kg, i.v.
[11]
  Ulcer index (6-ranked): 3.1 ± 0.5
[9]
  ID50 (B) aspirin-induced ulcer: 5.0 mg/kg, i.v.
